# Reference: patent publication US20140329863A1 (priority 2011, published 2014)
# Read-outs that look alike come from different tables or passages of the source.
# Columns and labels:
# [1] = "rat human hepatic microsomes", NADPH with UDPGA or PBS
# [2] = Hepatic microsomal stability, rat
# [3] = Hepatic microsomal stability, human; details: for half-life at 1 μM: human, pH 7.4
# [4] = Hepatic microsomal stability, mouse; details: for half-life at 1 μM: CD-1, mouse, pH 7.4
# [5] = Multiple-dose (three-day) pharmacokinetic studies in FVB mice, drug in liquid diet; format: in vivo, mouse; details: FVB, mouse, oral, 3 days in liquid diet, 40, 80, 130, 210 mg/kg/day
# Experimental: Aminothiazole analog (e.g., 4.5 g of 27) was added to 15 mL of pure PEG400, vortexed and sonicated to ensure dissolution, then stored at −4° C. until needed. This highly concentrated PEG400 solution was subsequently diluted to final dosing concentrations, where the volume added was composed of homogenized solid rodent feed, cocoa (taste masking agent), and water. Wild-type FVB mice weigh ˜25 gm and typically drink 20 mL of liquid diet per day, allowing an estimate of daily drug consumption. A single dosing cohort consisted of three mice in a shared cage and liquid diet was provided at the start of the study in sufficient volume to last for the entire three-day trial (˜200 mL). At the end of the three-day dosing period, animals were euthanized by CO2, followed by collection of plasma (cardiac puncture) and removal of whole brain. Heparinized blood was centrifuged to separate plasma and both plasma and brain samples were stored at −80° C. prior to analysis. Plasma samples were prepared for analysis by precipitating proteins and reconstituting the remaining fraction with HPLC mobile phase. Brain samples were typically prepared by four-fold dilution with water after weighing, then homogenized using bead-beater or Polytron™ resulting in a highly concentrated solution that was further diluted with mobile phase as appropriate in preparation for bioanalytical analysis using LC-MS. Analysis was by LC-MS (Shimadzu dual-HPLC pumps, C18 analytical column, with detection using an Applied Biosystems API-4000 triple quadrupole mass spectrometer).
# Ten compounds were selected from among the 34 2-AMTs for three-day multiple-dose PK studies at PO doses ranging from 40-210 mg/kg. Selection was based on diversity in potency, chemical structure, and a range of physicochemical properties. We used a liquid diet to facilitate easy drug administration, as well as serve as the daily source of all water and food. This approach was chosen because the mouse bioassay studies that would be used to assess drug effects on survival would be expected to run for 110 to 400 days, or more; gavage dosing for such a long period is not feasible and more stressful to mice. For the multiple-dose PK studies, 4.5 g of the 2-AMT analogs was added to 15 mL of pure PEG400, vortexed and sonicated to ensure dissolution, then stored at −4° C. until needed. This highly concentrated PEG400 solution was subsequently diluted to final dosing concentrations and added to the rodent liquid diet, cocoa (taste-masking agent), and water.
# Wild-type FVB mice weigh ˜25 g and typically drink 20 mL of liquid diet per day, allowing an estimate of daily drug consumption. A single dosing cohort consisted of three mice in a shared cage and liquid diet was provided at the start of the study in sufficient volume (˜200 mL) to last for the entire three-day period. At the end of the dosing period, animals were euthanized by CO2, followed by collection of plasma (cardiac puncture) and removal of whole brain. Samples were processed and stored as described above for the 10 mg/kg single-dose studies.
# Plasma and brain homogenate samples were extracted using a protein-precipitation method and analyzed by specific LC/MS/MS methods developed for each compound dosed in vivo. The analytical method accuracy and precision were monitored by analyzing quality control (QC) samples that were prepared by the same methods as the plasma or brain homogenate samples. The brain and plasma concentration data were used to calculate the maximal concentration (Cmax), area under the concentration-time curve (AUClast), and absolute bioavailability (% F) by noncompartmental analysis with sparse sampling performed using Phoenix WinNonlin 6.1 software (Pharsight, Mountain View, Calif.).
# [6] = Multidose (three-day) pharmacokinetics in liquid diet in FVB mice; details: FVB, mouse, in vivo
# [7] = test system: PrP^Sc in dividing ScN2a-cl3 cells; format: cell-based, mouse
# [8] = cell culture media, plasma or biological fluid
# [9] = brain, read-out: brain concentration
# [10] = plasma, read-out: plasma concentration
# [11] = 40 mg/kg, Plasma Concentration (Css), three-day dosing in liquid diet, plasma
# [12] = 80 mg/kg, Brain Concentration (Css), three-day dosing in liquid diet, brain
# [13] = 80 mg/kg, Plasma Concentration (Css), three-day dosing in liquid diet, plasma
# [14] = 130 mg/kg, Brain Concentration (Css), three-day dosing in liquid diet, brain
# [15] = 130 mg/kg, Plasma Concentration (Css), three-day dosing in liquid diet, plasma
# [16] = 210 mg/kg, Brain Concentration (Css), three-day dosing in liquid diet, brain
# [17] = 210 mg/kg, Plasma Concentration (Css), three-day dosing in liquid diet, plasma
# [18] = Brain and plasma concentrations, 40, 80, 130 and 210 mg/kg/day for 3 days
Compound,"T1/2, control incubations [1]",solubility (physchem; [8]),"concentration at 3 days [5, 9]","concentration at 3 days [5, 10]","concentration at 3 days [6, 11]","concentration at 3 days [6, 12]","concentration at 3 days [6, 13]","concentration at 3 days [6, 14]","concentration at 3 days [6, 15]","concentration at 3 days [6, 16]","concentration at 3 days [6, 17]","concentration at 3 days [6, 18]",other results
"O=[N+]([O-])c1ccc(O)cc1 [4-Nitrophenol, reference compound]",0.333 h,,,,,,,,,,,,
"COc1ccc(-c2csc(Nc3cc4ccccc4cn3)n2)cc1OC [IND46, [4-(3,4-Dimethoxy-phenyl)-thiazol-2-yl]-isoquinolin-3-yl-amine]",,174 µM,≤ 1000 nM,≤ 1000 nM,50 ± 20 nM,60 ± 70 nM,60 ± 30 nM,140 ± 40 nM,80 ± 40 nM,320 ± 110 nM,140 ± 30 nM,≤ 1000 nM,"solubility (physchem; FaSSIF): 5 µM; solubility (physchem; pH 2 (HCl) buffer, pH 2, simulated gastric fluid): < 1 µM; solubility (physchem; pH 7.4 (phosphate) buffer, pH 7.4, aqueous buffer): < 1 µM; half-life at 1 μM ([2]; Sprague-Dawley, rat, […], pH 7.4): > 1 h; % remaining after a 60-min incubation, Rat ([2]; […], 60-min incubation): 61%; t1/2 Rat (extrapolated) ([2]; rat microsomes, * extrapolated): 83* min; solubility in FaSSIF (in words) (fasted-state simulated intestinal fluid): lower solubility; solubility at pH 2.0 (in words) (pH 2 (HCl) buffer): lower solubility; % remaining after a 60-min incubation, Human ([3]; human liver microsomes, 60-min incubation): 83%; half-life at 1 μM ([3]; human liver microsomes): > 1 h; half-life at 1 μM ([3]; liver microsomes): > 1 h; half-life at 1 μM ([4]; liver microsomes): 1.25 h; half-life at 1 μM ([4]; mouse liver microsomes): > 1 h; % remaining after a 60-min incubation, Mouse ([4]; mouse liver microsomes, 60-min incubation): 58%; concentration at 3 days ([6]; 40 mg/kg, Brain Concentration (Css), three-day dosing in liquid diet, brain): 30 ± 30 nM"
"c1ccc2cc(Nc3nc(-c4cc5ccccc5o4)cs3)ncc2c1 [IND91, (4-Benzofuran-2-yl-thiazol-2-yl)-isoquinolin-3-yl-amine]",,151 µM,≤ 1000 nM,≤ 1000 nM,260 ± 130 nM,190 ± 90 nM,1550 ± 360 nM,260 ± 120 nM,1740 ± 310 nM,280 ± 40 nM,3060 ± 560 nM,≤ 1000 nM,"EC50 ([7]; AMT analogs tested for potency): 923 nM; EC50 ([7]; Table 29, 2-AMT analogs tested for potency, usually n = 3 or more): 923 nM"
"Cc1ncc2n1-c1ccc(Cl)cc1C(c1ccccc1F)=NC2 [Midazolam, reference compound]",0.183 h,,,,,,,,,,,,
